Residues, ends and D or L forms follow the SMILES beside them. *: point of attachment. Lauroyl = CCCCCCCCCCCC(=O)*

The procedure of data set [1]: Adult male Sprague-Dawley rats weighing 350 to 400 g underwent midline neck incision with exposure of internal jugular vein. Targeted nanofiber 2.5 mg was dissolved in 1.0 mL of HBBS and injected within the internal jugular vein using 25 G needle. After complete injection, needle was withdrawn, pressure held at the injection site for 1 minute and the neck incision was closed. Rats were euthanized at 10, 15, 30, 60 min, 4, 16 hours, 4 and 6 days post injection and viscera (liver, lung, kidney and spleen) were harvested.
Carotid arteries and viscera were harvested after in-situ perfusion-fixation with PBS (250 mL) and placed in 2% paraformaldehyde overnight.

A short description of data set [2]: Small angle X-ray scattering (SAXS) of nanostructures. The class given is physicochemical. Here is the method:
Small angle X-ray scattering (SAXS) experiments were performed at the Advanced Photon Source, Argonne National Laboratory. The X-ray energy (15 keV) was selected using a double-crystal monochromator with a 30 mm offset. Samples were dissolved at a concentration of 5 mM in PBS and placed in 1.5 mm quartz capillary tubes. The typical incident X-ray flux on the sample was ˜1×10^12 photons/s with a 0.2×0.3 mm^2 collimator, and samples were exposed for 4 s. The 1D scattering profiles were obtained by azimuthal integration of the 2D patterns, with scattering from the capillaries and PBS buffer subtracted as background. Scattering profiles were then plotted on a relative scale as a function of the scattering vector q=(4π/λ) sin(θ/2), where θ is the scattering angle.

In the case of `CCCCCCCCCCCC(=O)NCCCC[C@H](NC(=O)[C@@H](NC(=O)[C@@H](NC(=O)[C@H](C)NC(=O)[C@H](C)NC(=O)[C@H](CCCCN)NC(=O)[C@H](CCCCN)NC(=O)[C@H](CS)NC(=O)[C@H](CCCCN)NC(=O)[C@@H]1CCCN1C(=O)[C@H](CC(C)C)NC(=O)[C@H](Cc1c[nH]c2ccccc12)NC(=O)[C@@H](NC(=O)[C@H](CC(C)C)NC(=O)[C@@H](N)CCCCN)C(C)C)C(C)C)C(C)C)C(=O)O` [targeted nanofiber, KLVWLPKCK2A2V2K(C12)] (H-KLVWLPKCKKAAVVK(Lauroyl)-OH; N-terminus and C-terminus assumed), in data set [1] (2.5 mg internal jugular vein), the “earliest time fluorescence present within the kidneys” value was found to be 10 min, the “fluorescence in the kidneys over time” value is reported as “increasing fluorescence”, the “fluorescence in the liver over time” value is reported as “Decreasing fluorescence” and the “latest time fluorescence present within the kidneys” value was 6 days. For the same compound, in data set [1] (2.5 mg internal jugular vein, 10 min to 6 days), the “fluorescence within the liver and kidneys” value is recorded as “Fluorescence was observed”. Moreover, the “fluorescence in the brain, heart, intestine and lungs” value in data set [1] (any of the time points) is “no fluorescence detected”.

With KLWVLPKC, in data set [2], the “self-assembly by SAXS” value was “did not display any evidence of self-assembly”.

For the origin of these results see patent US9517275B2, “Targeted therapy for the prevention of restenosis in the cardiovascular system” (Northwestern University, priority 2013, dated 2016).
